Measurements: patent US8546565B2, “Quinazolinamide derivatives” (Merck Patent Gesellschaft, priority 2008, dated 2013)

Each compound was assayed against T1, Recombinant human HSP90a (Homo sapiens, UniProt P07900) (assay: HSP90 radioligand filter binding test ([3H]17AAG competition)). Settings: [3H]17AAG 0.08 μM, HSP90 1.5 μg/assay, 22° C., 30 min; read-out: IC50 (HSP90 inhibition).
T1 construct: host or cells: E. coli
Description: Test Method for the Measurement of HSP90 Inhibitors
The binding of geldanamycin or 17-allylamino-17-demethoxygeldanamycin (17AAG) to HSP90 and competitive inhibition thereof can be utilised in order to determine the inhibitory activity of the compounds according to the invention (Carreras et al. 2003, Chiosis et al. 2002).
In the specific case, a radioligand filter binding test is used. The radioligand used here is tritium-labelled 17-allylaminogeldanamycin, [3H]17AAG. This filter binding test allows a targeted search for inhibitors which interfere with the ATP binding site.
Recombinant human HSP90a (E. coli expressed, 95% purity);
[3H]17AAG (17-allylaminogeldanamycin, [allylamino-2,3-^3H. Specific activity: 1.11×10^12 Bq/mmol (Moravek, MT-1717);
HEPES filter buffer (50 mM HEPES, pH 7.0, 5 mM MgCl2, BSA 0.01%)
Multiscreen FB (1 μm) filter plate (Millipore, MAFBNOB 50).
The 96-well microtitre filter plates are firstly irrigated and coated with 0.1% of polyethylenimine.
The test is carried out under the following conditions:
Reaction temperature 22° C.
Reaction time: 30 min., shaking at 800 rpm
50 mM HEPES HCl, pH 7.0, 5 mM MgCl2, 0.01% (w/v) of BSA
At the end of the reaction, the supernatant in the filter plate is removed by suction with the aid of a vacuum manifold (Multiscreen Separation System, Millipore), and the filter is washed twice.
The filter plates are then measured in a beta counter (Microbeta, Wallac) with scintillator (Microscint 20, Packard).
“% of control” is determined from the “counts per minutes” values, and the IC-50 value of a compound is calculated therefrom.

Compound	IC50
CCN(CC)C(=O)c1cc(OC)c(OC)cc1-c1ccc2nc(N)nc(C(=O)N3Cc4ccccc4C3)c2c1 [Compound A88, 2-[2-Amino-4-(1,3-dihydroisoindole-2-carbonyl)quinazolin-6-yl]-N,N-diethyl-4,5-dimethoxybenzamide]	1000 to 10000 nM
CCNC(=O)c1cc(OC)c(OC)cc1-c1ccc2nc(N)nc(C(=O)N3Cc4ccccc4C3)c2c1 [Compound A84, 2-[2-Amino-4-(1,3-dihydroisoindole-2-carbonyl)quinazolin-6-yl]-N-ethyl-4,5-dimethoxybenzamide]	> 10000 nM
Nc1nc(C(=O)N2Cc3ccccc3C2)c2cc(-c3ccccc3C(=O)N3CCCC3C(=O)O)ccc2n1 (centres unmarked) [Compound A44, 1-{2-[2-Amino-4-(1,3-dihydroisoindole-2-carbonyl)quinazolin-6-yl]-benzoyl}pyrrolidine-2-carboxylic acid]	10 to 1000 nM
CCN(CC)C(=O)c1cc(F)c(F)cc1-c1ccc2nc(N)nc(C(=O)N3Cc4ccccc4C3)c2c1 [Compound A69, 2-[2-Amino-4-(1,3-dihydroisoindole-2-carbonyl)quinazolin-6-yl]-N,N-diethyl-4,5-difluorobenzamide]	10 to 1000 nM
CN(C(C)(C)C)S(=O)(=O)c1ccccc1-c1ccc2nc(N)nc(C(=O)N3Cc4ccccc4C3)c2c1 [Compound A59, 2-[2-Amino-4-(1,3-dihydroisoindole-2-carbonyl)quinazolin-6-yl]-N-tert-butyl-N-methylbenzenesulfonamide]	10 to 1000 nM
Nc1nc(C(=O)N2Cc3ccccc3C2)c2cc(-c3ccccc3S(=O)(=O)n3ccnc3)ccc2n1 [Compound A27, {2-Amino-6-[2-(imidazole-1-sulfonyl)phenyl]quinazolin-4-yl}-(1,3-dihydroisoindol-2-yl)methanone]	1000 to 10000 nM
C[C@H]1CCCN1C(=O)c1ccccc1-c1ccc2nc(N)nc(C(=O)N3Cc4ccccc4C3)c2c1 [Compound A72, {2-Amino-6-[2-((S)-2-methylpyrrolidine-1-carbonyl)phenyl]quinazolin-4-yl}-(1,3-dihydroisoindol-2-yl)methanone]	10 to 1000 nM
CCN(CCO)C(=O)c1cc(F)c(F)cc1-c1ccc2nc(N)nc(C(=O)N3Cc4ccccc4C3)c2c1 [Compound A75, 2-[2-Amino-4-(1,3-dihydroisoindole-2-carbonyl)quinazolin-6-yl]-N-ethyl-4,5-difluoro-N-(2-hydroxyethyl)benzamide]	10 to 1000 nM
CNCCNS(=O)(=O)c1ccccc1-c1ccc2nc(N)nc(C(=O)N3Cc4ccccc4C3)c2c1 [Compound A16, 2-[2-amino-4-(1,3-dihydroisoindole-2-carbonyl)quinazolin-6-yl]-N-(2-methylaminoethyl)benzenesulfonamide]	10 to 1000 nM
CN(C)C(=O)c1ccccc1-c1ccc2nc(N)nc(C(=O)N3Cc4ccccc4C3)c2c1 [Compound A38]	10 to 1000 nM
Nc1nc(C(=O)N2Cc3ccccc3C2)c2cc(-c3ccccc3S(=O)(=O)N3CCC(F)(F)C3)ccc2n1 [Compound A53, {2-Amino-6-[2-(3,3-difluoropyrrolidine-1-sulfonyl)phenyl]quinazolin-4-yl}-(1,3-dihydroisoindol-2-yl)methanone]	10 to 1000 nM
CCNC(=O)c1ccc(Cl)cc1-c1ccc2nc(N)nc(C(=O)N3Cc4ccccc4C3)c2c1 [Compound A86, 2-[2-Amino-4-(1,3-dihydroisoindole-2-carbonyl)quinazolin-6-yl]-4-chloro-N-ethylbenzamide]	10 to 1000 nM
Nc1nc(C(=O)N2Cc3ccccc3C2)c2cc(-c3ccccc3S(=O)(=O)N3CCNC(=O)C3)ccc2n1 [Compound A12]	10 to 1000 nM
CCN(CCO)S(=O)(=O)c1ccccc1-c1ccc2nc(N)nc(C(=O)N3Cc4ccccc4C3)c2c1 [Compound A25, 2-[2-Amino-4-(1,3-dihydroisoindole-2-carbonyl)quinazolin-6-yl]-N-ethyl-N-(2-hydroxyethyl)benzenesulfonamide]	10 to 1000 nM

Results, then the compound that gave them:

IC50	Compound
10 to 1000 nM	CN(C1CC1)S(=O)(=O)c1ccccc1-c1ccc2nc(N)nc(C(=O)N3Cc4ccccc4C3)c2c1 [Compound A65, 2-[2-amino-4-(1,3-dihydroisoindole-2-carbonyl)quinazolin-6-yl]-N-cyclopropyl-N-methylbenzenesulfonamide]
10 to 1000 nM	CC1CCCN1S(=O)(=O)c1ccccc1-c1ccc2nc(N)nc(C(=O)N3Cc4ccccc4C3)c2c1 (centres unmarked) [Compound A19, {2-Amino-6-[2-(2-methylpyrrolidine-1-sulfonyl)phenyl]quinazolin-4-yl}-(1,3-dihydroisoindol-2-yl)methanone]
10 to 1000 nM	NCCNS(=O)(=O)c1ccccc1-c1ccc2nc(N)nc(C(=O)N3Cc4ccccc4C3)c2c1 [Compound A14, 2-[2-Amino-4-(1,3-dihydroisoindole-2-carbonyl)quinazolin-6-yl]-N-(2-aminoethyl)benzenesulfonamide]
10 to 1000 nM	Nc1nc(C(=O)N2Cc3ccccc3C2)c2cc(-c3ccccc3S(=O)(=O)N3CC(F)(F)C3)ccc2n1 [Compound A60]
10 to 1000 nM	Nc1nc(C(=O)N2Cc3ccccc3C2)c2cc(-c3ccccc3C(=O)NC3CCC3)ccc2n1 [Compound A46, 2-[2-Amino-4-(1,3-dihydroisoindole-2-carbonyl)quinazolin-6-yl]-N-cyclobutylbenzamide]
10 to 1000 nM	CN(Cc1cncn1C)S(=O)(=O)c1ccccc1-c1ccc2nc(N)nc(C(=O)N3Cc4ccccc4C3)c2c1 [Compound A18]
10 to 1000 nM	CN(C1CNC1)S(=O)(=O)c1ccccc1-c1ccc2nc(N)nc(C(=O)N3Cc4ccccc4C3)c2c1 [Compound A68]
10 to 1000 nM	CCN(CC)S(=O)(=O)c1ccccc1-c1ccc2nc(N)nc(C(=O)N3Cc4ccccc4C3)c2c1 [Compound A45, 2-[2-Amino-4-(1,3-dihydroisoindole-2-carbonyl)quinazolin-6-yl]-N,N-diethylbenzenesulfonamide]
10 to 1000 nM	Nc1nc(C(=O)N2Cc3ccccc3C2)c2cc(-c3ccccc3S(N)(=O)=O)ccc2n1 [Compound A2, 2-[2-amino-4-(1,3-dihydroisoindole-2-carbonyl)quinazolin-6-yl]-benzenesulfonamide]
10 to 1000 nM	Nc1nc(C(=O)N2Cc3ccccc3C2)c2cc(-c3cc(F)c(F)cc3C(=O)N3CCC3)ccc2n1 [Compound A80, {2-Amino-6-[2-(azetidine-1-carbonyl)-4,5-difluorophenyl]quinazolin-4-yl}-(1,3-dihydroisoindol-2-yl)methanone]
10 to 1000 nM	CC(C)(C)NC(=O)c1ccccc1-c1ccc2nc(N)nc(C(=O)N3Cc4ccccc4C3)c2c1 [Compound A47, 2-[2-Amino-4-(1,3-dihydroisoindole-2-carbonyl)quinazolin-6-yl]-N-tert-butylbenzamide]
10 to 1000 nM	Nc1nc(C(=O)N2Cc3ccccc3C2)c2cc(-c3ccccc3C(=O)N3CCC(F)(F)C3)ccc2n1 [Compound A49, {2-Amino-6-[2-(3,3-difluoropyrrolidine-1-carbonyl)phenyl]quinazolin-4-yl}-(1,3-dihydroisoindol-2-yl)methanone]
10 to 1000 nM	Nc1nc(C(=O)N2Cc3ccccc3C2)c2cc(-c3ccccc3C(=O)N3CCC(N)C3)ccc2n1 (centres unmarked) [Compound A43, {2-amino-6-[2-(3-aminopyrrolidine-1-carbonyl)phenyl]quinazolin-4-yl}-(1,3-dihydroisoindol-2-yl)methanone]
10 to 1000 nM	Nc1nc(C(=O)N2Cc3ccccc3C2)c2cc(-c3cc(F)c(F)cc3C(=O)N3CCCC3)ccc2n1 [Compound A78, {2-Amino-6-[4,5-difluoro-2-(pyrrolidine-1-carbonyl)phenyl]quinazolin-4-yl}-(1,3-dihydroisoindol-2-yl)methanone]
10 to 1000 nM	CNC(=O)C1CCCN1S(=O)(=O)c1ccccc1-c1ccc2nc(N)nc(C(=O)N3Cc4ccccc4C3)c2c1 (centres unmarked) [Compound A58, 1-{2-[2-amino-4-(1,3-dihydroisoindole-2-carbonyl)quinazolin-6-yl]benzenesulfonyl}pyrrolidine-2-methylamide]
10 to 1000 nM	CCN(CCN(C)C)C(=O)c1ccccc1-c1ccc2nc(N)nc(C(=O)N3Cc4ccccc4C3)c2c1 [Compound A55]
10 to 1000 nM	Nc1nc(C(=O)N2Cc3ccccc3C2)c2cc(-c3ccccc3S(=O)(=O)NCCO)ccc2n1 [Compound A11, 2-[2-Amino-4-(1,3-dihydroisoindole-2-carbonyl)quinazolin-6-yl]-N-(2-hydroxyethyl)benzenesulfonamide]
10 to 1000 nM	CCNC(=O)c1ccccc1-c1ccc2nc(N)nc(C(=O)N3Cc4ccccc4C3)c2c1 [Compound A41, 2-[2-Amino-4-(1,3-dihydroisoindole-2-carbonyl)quinazolin-6-yl]-N-ethylbenzamide]
10 to 1000 nM	CC(=O)NC1CCN(S(=O)(=O)c2ccccc2-c2ccc3nc(N)nc(C(=O)N4Cc5ccccc5C4)c3c2)C1 (centres unmarked) [Compound A20]
10 to 1000 nM	CCN(CCO)C(=O)c1ccccc1-c1ccc2nc(N)nc(C(=O)N3Cc4ccccc4C3)c2c1 [Compound A24]
10 to 1000 nM	Nc1nc(C(=O)N2Cc3ccccc3C2)c2cc(-c3ccccc3S(=O)(=O)NC3CCC3)ccc2n1 [Compound A51, 2-[2-Amino-4-(1,3-dihydroisoindole-2-carbonyl)quinazolin-6-yl]-N-cyclobutylbenzenesulfonamide]
